Experiments:
CYPIR (Rice Flatsedge) = assay: Postemergence weed control under flooded paddy conditions; assay type: in vivo, Cyperus iria; settings: postemergence weeds, 3-4 weeks after treatment
Method in brief: (§1)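 Herbicidal effect is judged by eye on a 0–9 scale versus control, 3–4 weeks after dosing. Dosing is into flood water kept 1.5–3 cm over the soil, at about 0.0313–0.500 kg/ha in aqueous/acetone 50/50 v/v, on 3–5 cm weeds and 1.5–2.5-leaf rice seedlings.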

[1] = test system: IPOHE (Morningglory, Ivyleaf); assay: Postemergence herbicidal evaluation; assay type: in vivo, Ipomoea hederacea
Method in brief: (§2)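 Rate range approx. 0.0156–0.500 kg/ha. Foliar application at 40 psi to ~2-week seedlings; surfactant 0.5% TWEEN 20 in 50/50 acetone/water. Evaluation 4–5 wk post-treatment by 0–9 visual injury score, means of replicate tests.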

ABUTH (Velvetleaf) [2] = assay: Preemergence herbicidal evaluation; assay type: in vivo, Abutilon theophrasti; settings: rated 4-5 weeks after treatment
Method in brief: (§3)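 Sown cups got a single aqueous acetone spray of test compound (roughly 0.0156–0.500 kg/ha) before seedlings emerged. Evaluation, 4–5 weeks on, used a 0–9 visual scale covering plant stand, vigor, size, malformation, chlorosis and general appearance compared with controls.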

ABUTH (Velvetleaf) [3] = assay: Postemergence herbicidal evaluation; assay type: in vivo, Abutilon theophrasti
Method in brief: as §2

ZEAMX (Corn, Field) [4] = assay: Preemergence herbicidal evaluation; assay type: in vivo, Zea mays; settings: rated 4-5 weeks after treatment
Method in brief: as §3

SETVI (Foxtail, Green) = assay: Postemergence herbicidal evaluation; assay type: in vivo, Setaria viridis
Method in brief: as §2

[5] = test system: TRZAWR (Wheat, Winter, cv Riband); assay: Preemergence herbicidal evaluation; assay type: in vivo, Triticum aestivum; settings: rated 4-5 weeks after treatment
Method in brief: as §3

[6] = test system: GLXMAW (Soybean, Williams); assay: Preemergence herbicidal evaluation; assay type: in vivo, Glycine max, (L.) Merr. cv Williams; settings: rated 4-5 weeks after treatment
Method in brief: as §3

CYPSE (Flatsedge) = assay: Postemergence weed control under flooded paddy conditions; assay type: in vivo, Cyperus serotinus; settings: postemergence weeds, 3-4 weeks after treatment
Method in brief: as §1

[7] = test system: IPOHE (Morningglory, Ivyleaf); assay: Preemergence herbicidal evaluation; assay type: in vivo, Ipomoea hederacea; settings: rated 4-5 weeks after treatment
Method in brief: as §3

ECHCG (Barnyardgrass) [8] = assay: Preemergence herbicidal evaluation; assay type: in vivo, Echinochloa crus-galli; settings: rated 4-5 weeks after treatment
Method in brief: as §3

ZEAMX (Corn, Field) [9] = assay: Postemergence herbicidal evaluation; assay type: in vivo, Zea mays
Method in brief: as §2

ORYSAT (Rice, Tebonnet) = assay: Postemergence herbicidal evaluation; assay type: in vivo, Oryza sativa, (L.) Tebonnet
Method in brief: as §2

[10] = test system: CHEAL (Lambsquarters, Common); assay: Preemergence herbicidal evaluation; assay type: in vivo, Chenopodium album; settings: rated 4-5 weeks after treatment
Method in brief: as §3

CASOB (Sicklepod) = assay: Preemergence herbicidal evaluation; assay type: in vivo, Cassia obtusifolia; settings: rated 4-5 weeks after treatment
Method in brief: as §3

ECHCG (Barnyardgrass) [11] = assay: Postemergence herbicidal evaluation; assay type: in vivo, Echinochloa crus-galli
Method in brief: as §2

[12] = test system: CHEAL (Lambsquarters, Common); assay: Postemergence herbicidal evaluation; assay type: in vivo, Chenopodium album
Method in brief: as §2

Cn1c(C(F)(F)F)cc(=O)n(-c2cc(N=C3SCC(=O)N3CCC(=O)O)c(Cl)cc2F)c1=O [Compound 30, 2-{{2-Chloro-5-[3,6-dihydro-3-methyl-2,6-dioxo-4-(trifluoromethyl)-1(2H)-pyrimidinyl]-4-fluorophenyl}imino}-4-oxo-3-thiazolidinepropionic acid]
Herbicidal rating CYPIR (CYPIR (Rice Flatsedge); rate 0.1250 kg/ha): 2.0
Herbicidal rating CYPIR (CYPIR (Rice Flatsedge); rate 0.2500 kg/ha): 4.5
Postemergence herbicidal rating IPOHE ([1]; Rate 0.0158 kg/ha): 0.0
Postemergence herbicidal rating IPOHE ([1]; Rate 0.0315 kg/ha): 0.0
Postemergence herbicidal rating IPOHE ([1]; Rate 0.0630 kg/ha): 9.0
Preemergence herbicidal rating ABUTH (ABUTH (Velvetleaf) [2]; rate 0.0313 kg/ha): 9.0
Preemergence herbicidal rating ABUTH (ABUTH (Velvetleaf) [2]; rate 0.0625 kg/ha): 9.0
Preemergence herbicidal rating ABUTH (ABUTH (Velvetleaf) [2]; rate 0.1250 kg/ha): 9.0
Preemergence herbicidal rating ABUTH (ABUTH (Velvetleaf) [2]; rate 0.2500 kg/ha): 9.0
Postemergence herbicidal rating ABUTH (ABUTH (Velvetleaf) [3]; Rate 0.0158 kg/ha): 3.0
Postemergence herbicidal rating ABUTH (ABUTH (Velvetleaf) [3]; Rate 0.0315 kg/ha): 9.0
Postemergence herbicidal rating ABUTH (ABUTH (Velvetleaf) [3]; Rate 0.0630 kg/ha): 9.0
Preemergence herbicidal rating ZEAMX (ZEAMX (Corn, Field) [4]; rate 0.0313 kg/ha): 1.0
Preemergence herbicidal rating ZEAMX (ZEAMX (Corn, Field) [4]; rate 0.0625 kg/ha): 3.0
Preemergence herbicidal rating ZEAMX (ZEAMX (Corn, Field) [4]; rate 0.1250 kg/ha): 3.0
Preemergence herbicidal rating ZEAMX (ZEAMX (Corn, Field) [4]; rate 0.2500 kg/ha): 6.0
Postemergence herbicidal rating SETVI (SETVI (Foxtail, Green); Rate 0.0158 kg/ha): 0.0
Postemergence herbicidal rating SETVI (SETVI (Foxtail, Green); Rate 0.0315 kg/ha): 0.0
Postemergence herbicidal rating SETVI (SETVI (Foxtail, Green); Rate 0.0630 kg/ha): 0.0
Preemergence herbicidal rating TRZAWR ([5]; rate 0.0313 kg/ha): 0.0
Preemergence herbicidal rating TRZAWR ([5]; rate 0.0625 kg/ha): 1.0
Preemergence herbicidal rating TRZAWR ([5]; rate 0.1250 kg/ha): 2.0
Preemergence herbicidal rating TRZAWR ([5]; rate 0.2500 kg/ha): 6.0
Preemergence herbicidal rating GLXMAW ([6]; rate 0.0313 kg/ha): 2.0
Preemergence herbicidal rating GLXMAW ([6]; rate 0.0625 kg/ha): 3.0
Preemergence herbicidal rating GLXMAW ([6]; rate 0.1250 kg/ha): 1.0
Preemergence herbicidal rating GLXMAW ([6]; rate 0.2500 kg/ha): 4.0
Herbicidal rating CYPSE (CYPSE (Flatsedge); rate 0.1250 kg/ha): 0.0
Herbicidal rating CYPSE (CYPSE (Flatsedge); rate 0.2500 kg/ha): 0.0
Preemergence herbicidal rating IPOHE ([7]; rate 0.0313 kg/ha): 0.0
Preemergence herbicidal rating IPOHE ([7]; rate 0.0625 kg/ha): 0.0
Preemergence herbicidal rating IPOHE ([7]; rate 0.1250 kg/ha): 1.0
Preemergence herbicidal rating IPOHE ([7]; rate 0.2500 kg/ha): 2.0
Preemergence herbicidal rating ECHCG (ECHCG (Barnyardgrass) [8]; rate 0.0313 kg/ha): 0.0
Preemergence herbicidal rating ECHCG (ECHCG (Barnyardgrass) [8]; rate 0.0625 kg/ha): 0.0
Preemergence herbicidal rating ECHCG (ECHCG (Barnyardgrass) [8]; rate 0.1250 kg/ha): 0.0
Preemergence herbicidal rating ECHCG (ECHCG (Barnyardgrass) [8]; rate 0.2500 kg/ha): 0.0
Postemergence herbicidal rating ZEAMX (ZEAMX (Corn, Field) [9]; Rate 0.0158 kg/ha): 3.0
Postemergence herbicidal rating ZEAMX (ZEAMX (Corn, Field) [9]; Rate 0.0315 kg/ha): 4.5
Postemergence herbicidal rating ZEAMX (ZEAMX (Corn, Field) [9]; Rate 0.0630 kg/ha): 6.0
Postemergence herbicidal rating ORYSAT (ORYSAT (Rice, Tebonnet); Rate 0.0158 kg/ha): 2.0
Postemergence herbicidal rating ORYSAT (ORYSAT (Rice, Tebonnet); Rate 0.0315 kg/ha): 2.5
Postemergence herbicidal rating ORYSAT (ORYSAT (Rice, Tebonnet); Rate 0.0630 kg/ha): 3.5
Preemergence herbicidal rating CHEAL ([10]; rate 0.0313 kg/ha): 0.0
Preemergence herbicidal rating CHEAL ([10]; rate 0.0625 kg/ha): 0.0
Preemergence herbicidal rating CHEAL ([10]; rate 0.1250 kg/ha): 9.0
Preemergence herbicidal rating CHEAL ([10]; rate 0.2500 kg/ha): 9.0
Preemergence herbicidal rating CASOB (CASOB (Sicklepod); rate 0.0313 kg/ha): 0.0
Preemergence herbicidal rating CASOB (CASOB (Sicklepod); rate 0.0625 kg/ha): 0.0
Preemergence herbicidal rating CASOB (CASOB (Sicklepod); rate 0.1250 kg/ha): 1.0
Preemergence herbicidal rating CASOB (CASOB (Sicklepod); rate 0.2500 kg/ha): 1.0
Postemergence herbicidal rating ECHCG (ECHCG (Barnyardgrass) [11]; Rate 0.0158 kg/ha): 0.0
Postemergence herbicidal rating ECHCG (ECHCG (Barnyardgrass) [11]; Rate 0.0315 kg/ha): 0.0
Postemergence herbicidal rating ECHCG (ECHCG (Barnyardgrass) [11]; Rate 0.0630 kg/ha): 0.0
Postemergence herbicidal rating CHEAL ([12]; Rate 0.0158 kg/ha): 0.0
Postemergence herbicidal rating CHEAL ([12]; Rate 0.0315 kg/ha): 0.0
Postemergence herbicidal rating CHEAL ([12]; Rate 0.0630 kg/ha): 3.0

Cn1c(C(F)(F)F)cc(=O)n(-c2cc(N=C3SCC(=O)N3CCC(=O)O)c(Cl)cc2F)c1=O [Compound 31, 2-{{2-Chloro-5-[3,6-dihydro-3-methyl-2,6-dioxo-4-(trifluoromethyl)-1(2H)-pyrimidinyl]-4-fluoro-phenyl}imino}-4-oxo-3-thiazolidinepropionic acid]
Herbicidal rating CYPIR (CYPIR (Rice Flatsedge); rate 0.0625 kg/ha): 0.0
Herbicidal rating CYPIR (CYPIR (Rice Flatsedge); rate 0.1250 kg/ha): 0.0
Herbicidal rating CYPIR (CYPIR (Rice Flatsedge); rate 0.2500 kg/ha): 2.5
Postemergence herbicidal rating IPOHE ([1]; Rate 0.0158 kg/ha): 9.0
Postemergence herbicidal rating IPOHE ([1]; Rate 0.0315 kg/ha): 9.0
Postemergence herbicidal rating IPOHE ([1]; Rate 0.0630 kg/ha): 9.0
Preemergence herbicidal rating ABUTH (ABUTH (Velvetleaf) [2]; rate 0.0625 kg/ha): 0.0
Preemergence herbicidal rating ABUTH (ABUTH (Velvetleaf) [2]; rate 0.1250 kg/ha): 9.0
Preemergence herbicidal rating ABUTH (ABUTH (Velvetleaf) [2]; rate 0.2500 kg/ha): 9.0
Postemergence herbicidal rating ABUTH (ABUTH (Velvetleaf) [3]; Rate 0.0158 kg/ha): 9.0
Postemergence herbicidal rating ABUTH (ABUTH (Velvetleaf) [3]; Rate 0.0315 kg/ha): 9.0
Postemergence herbicidal rating ABUTH (ABUTH (Velvetleaf) [3]; Rate 0.0630 kg/ha): 9.0
Preemergence herbicidal rating ZEAMX (ZEAMX (Corn, Field) [4]; rate 0.0625 kg/ha): 3.0
Preemergence herbicidal rating ZEAMX (ZEAMX (Corn, Field) [4]; rate 0.1250 kg/ha): 7.0
Preemergence herbicidal rating ZEAMX (ZEAMX (Corn, Field) [4]; rate 0.2500 kg/ha): 9.0
Postemergence herbicidal rating SETVI (SETVI (Foxtail, Green); Rate 0.0158 kg/ha): 0.0
Postemergence herbicidal rating SETVI (SETVI (Foxtail, Green); Rate 0.0315 kg/ha): 0.0
Postemergence herbicidal rating SETVI (SETVI (Foxtail, Green); Rate 0.0630 kg/ha): 7.0
Preemergence herbicidal rating TRZAWR ([5]; rate 0.0625 kg/ha): 0.0
Preemergence herbicidal rating TRZAWR ([5]; rate 0.1250 kg/ha): 3.0
Preemergence herbicidal rating TRZAWR ([5]; rate 0.2500 kg/ha): 7.0
Preemergence herbicidal rating GLXMAW ([6]; rate 0.0625 kg/ha): 3.0
Preemergence herbicidal rating GLXMAW ([6]; rate 0.1250 kg/ha): 5.0
Preemergence herbicidal rating GLXMAW ([6]; rate 0.2500 kg/ha): 6.0
Herbicidal rating CYPSE (CYPSE (Flatsedge); rate 0.0625 kg/ha): 0.0
Herbicidal rating CYPSE (CYPSE (Flatsedge); rate 0.1250 kg/ha): 0.0
Herbicidal rating CYPSE (CYPSE (Flatsedge); rate 0.2500 kg/ha): 0.0
Preemergence herbicidal rating IPOHE ([7]; rate 0.0625 kg/ha): 0.0
Preemergence herbicidal rating IPOHE ([7]; rate 0.1250 kg/ha): 5.0
Preemergence herbicidal rating IPOHE ([7]; rate 0.2500 kg/ha): 9.0
Preemergence herbicidal rating ECHCG (ECHCG (Barnyardgrass) [8]; rate 0.0625 kg/ha): 0.0
Preemergence herbicidal rating ECHCG (ECHCG (Barnyardgrass) [8]; rate 0.1250 kg/ha): 9.0
Preemergence herbicidal rating ECHCG (ECHCG (Barnyardgrass) [8]; rate 0.2500 kg/ha): 9.0
Postemergence herbicidal rating ZEAMX (ZEAMX (Corn, Field) [9]; Rate 0.0158 kg/ha): 7.0
Postemergence herbicidal rating ZEAMX (ZEAMX (Corn, Field) [9]; Rate 0.0315 kg/ha): 7.5
Postemergence herbicidal rating ZEAMX (ZEAMX (Corn, Field) [9]; Rate 0.0630 kg/ha): 8.0
Postemergence herbicidal rating ORYSAT (ORYSAT (Rice, Tebonnet); Rate 0.0158 kg/ha): 3.5
Postemergence herbicidal rating ORYSAT (ORYSAT (Rice, Tebonnet); Rate 0.0315 kg/ha): 4.0
Postemergence herbicidal rating ORYSAT (ORYSAT (Rice, Tebonnet); Rate 0.0630 kg/ha): 5.5
Preemergence herbicidal rating CHEAL ([10]; rate 0.0625 kg/ha): 0.0
Preemergence herbicidal rating CHEAL ([10]; rate 0.1250 kg/ha): 9.0
Preemergence herbicidal rating CHEAL ([10]; rate 0.2500 kg/ha): 9.0
Preemergence herbicidal rating CASOB (CASOB (Sicklepod); rate 0.0625 kg/ha): 0.0
Preemergence herbicidal rating CASOB (CASOB (Sicklepod); rate 0.1250 kg/ha): 2.0
Preemergence herbicidal rating CASOB (CASOB (Sicklepod); rate 0.2500 kg/ha): 1.0
Postemergence herbicidal rating ECHCG (ECHCG (Barnyardgrass) [11]; Rate 0.0158 kg/ha): 0.0
Postemergence herbicidal rating ECHCG (ECHCG (Barnyardgrass) [11]; Rate 0.0315 kg/ha): 0.0
Postemergence herbicidal rating ECHCG (ECHCG (Barnyardgrass) [11]; Rate 0.0630 kg/ha): 5.0
Postemergence herbicidal rating CHEAL ([12]; Rate 0.0158 kg/ha): 0.0
Postemergence herbicidal rating CHEAL ([12]; Rate 0.0315 kg/ha): 2.0
Postemergence herbicidal rating CHEAL ([12]; Rate 0.0630 kg/ha): 7.0
